Data set [1] has as its system R6/2 mice. Briefly: Immunohistochemistry of DARPP-32 in striatum. The conditions noted are these: over saline control. The data set is classed as in vivo, mouse. The text has this:
FIG. 33: Quantification of immunohistochemistry of DARPP32 in striatum of WT and R6/2 mice after treatment with PLP or HV3-TAT (immunohistochemistry stain not shown). p-value for: WT veh as compared to R62 veh: 0.0010; WT+P1 as compared to R62 veh: 0.0019; R62 veh as compared to R62+HV3-TAT: 0.0496; R62 veh as compared to R62+P1: 0.0104; R62+HV3-TAT as compared to R62+P1: 0.9593.
In vivo Efficacy Methods—Immunohistochemistry: Mice were anaesthetized with isoflurane and transcardially perfused with PBS. After post-fixed with 4% paraformaldehyde, brains were sliced and frozen. Brain sections (20 μm, coronal) were used for immunohistochemical localization of DARPP-32 (1:14000, Abcam) using the IHC Select HRP/DAB kit (Millipore). Imaging of slices was conducted on an all-in-one fluorescence microscope (Keyence). The same image exposure times and threshold settings were used for sections from all treatment groups. Quantitation of DARPP-32 immunostaining was conducted using NIH image J software.

The next data set deals with HdhQ111 cells. Briefly: Mitochondrial fragmentation assay. As to conditions: compared to vehicle treatment group, at least 100 cells per group. Format: cell-based, mouse. As for the experimental part:
FIG. 8: Mitochondrial fragmentation assay. The percentage of HdhQ111 cells with fragmented mitochondria relative to the total number of cells was quantitated. At least 100 cells per group were counted.
FIG. 9: Mitochondrial fragmentation assay. Mitochondrial morphology was determined by staining cells with anti-Tom20 antibody. Nuclei: Hoechst 33342 stain. […] Scale Bars: 60 μm; 12 μm for inset.
Mitochondrial Fragmentation Methods: As preventing the fragmentation of the mitochondria is important for maintaining the health of striatal cells in the HD in vitro model, the PLP's abilities were tested in this regard.

Data set [2] relates to R6/2 mice. Briefly: Western blot of DARPP-32, PSD95 and BDNF in striatal lysates. Format: in vivo, mouse. The text has this: FIG. 32A-32C: Histograms of Quantified Western Blot Results for Protein Levels (blots not shown). Actin was used as the loading control in the Western Blot, results are therefore depicted as ratios of the protein of interest signal relative to the actin signal in each sample. FIG. 32A depicts DARPP-32 levels in striatal lysates. p-value for: WT veh as compared to R62 veh: <0.0001; WT+P1 as compared to R62 veh: <0.0001; R62 veh as compared to R62+HV3-TAT: 0.0493; R62 veh as compared to R62+P1: 0.0027; R62+P1 as compared to R62+HV3-TAT: 0.7733. FIG. 32B depicts PSD95 levels in striatal lysates. p-value for: WT veh as compared to R62 veh: 0.0034; WT+P1 as compared to R62 veh: <0.0001; R62 veh as compared to R62+HV3-TAT: 0.0191; R62 veh as compared to R62+P1: <0.0001; R62+P1 as compared to R62+HV3-TAT: 0.1442. FIG. 32C depicts BDNF levels in striatal lysates. p-value for: WT veh as compared to R62 veh: <0.0001; WT+P1 as compared to R62 veh: <0.0001; R62 veh as compared to R62+HV3-TAT: 0.0120; R62 veh as compared to R62+P1: <0.0001; R62+P1 as compared to R62+HV3-TAT: 0.0257.
In vivo Efficacy Methods—Levels of Proteins of Interest: To further assess the efficacy of P1 in modulating HD neuropathology, the levels of cAMP-regulated phosphoprotein 32 kDa (DARPP-32), post-synaptic density protein (PSD95), and brain derived neurotrophic factor (BDNF) were determined in medium spiny neurons, each of which are decreased in the striatum of HD patients and R6/2 mouse models. Striatal lysates were generated from frozen striatal tissue from un-perfused sacrificed mice. Using a plate reader, protein concentrations were determined by protein assay dye (Bio-Rad). Protein stocks in lysis buffer were mixed with Laemmli buffer, loaded on SDS-PAGE, and transferred onto nitrocellulose membranes (Invitrogen). Membranes were probed with the primary antibodies for actin, DARPP-32, PSD95, and BDNF, and respective IgG-HRP secondary antibodies, followed by visualization of HRP with a blot scanner.
In general terms: A western blot detects proteins with antibodies after separation by electrophoresis.

The target of a further data set is pepsin (Sus scrofa, UniProt P00791).

The text below walks through data of patent US20240110004A1 (Northwestern University, priority 2022, published 2024).

Where no end group is shown, it is not given here.

Sequence of pepsin (P00791 60-385): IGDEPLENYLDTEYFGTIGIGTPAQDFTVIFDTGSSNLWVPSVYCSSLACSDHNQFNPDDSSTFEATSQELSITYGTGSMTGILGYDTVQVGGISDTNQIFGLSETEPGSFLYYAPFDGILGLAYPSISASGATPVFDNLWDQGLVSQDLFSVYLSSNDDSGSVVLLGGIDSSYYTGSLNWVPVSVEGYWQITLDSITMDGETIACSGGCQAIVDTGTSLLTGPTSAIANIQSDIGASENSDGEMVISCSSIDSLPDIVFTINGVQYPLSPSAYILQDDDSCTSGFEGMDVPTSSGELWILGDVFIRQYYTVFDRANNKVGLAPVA
Experimental for enzymes: (§1) Stability of PLPs Methods I: For enzyme-induced cleavage experiments, the molar concentration of enzymes was set to 0.1 μM. The concentration of side-chain peptides (having sequence identity of SEQ ID: 1) varied in the range of 50-200 μM. For each enzyme, temperature was set for optimal enzyme activity. In a typical experiment, P1 or HV3-TAT was dissolved in DPBS (pH 7.4) or hydrochloric acid solution (pH 2), to obtain a stock polymer/peptide solution with a peptide concentration of 200 μM. Next, 5 μL of enzyme stock solution (10 μM) was added into 500 μL of the polymer/peptide solution which was subsequently stirred in a preheated oil bath at 37° C. In this case, the molar ratio of peptide substrate to enzymes was 2000:1. During the cleavage, aliquots were taken for HPLC analysis at predetermined time points. Each degradation experiment was repeated three times. Enzyme pretreated P1 was also run on SDS-PAGE and visualized with Coomassie Blue staining.
Experimental for pepsin: as §1
Experimental for red blood cells: Hemocompatibility Methods: Before in vivo studies could be conducted, hemocompatibility of the compounds was also assessed via activated clotting time (ACT) and hemolytic activity. Peptide-in-blood and polymer-in-blood dilutions were performed at volume ratios of 1:10000, 1:5000, 1:1000, 1:500, 1:250, and in some cases 1:100.
Regarding the hemolytic activity assay, the hemolytic assessments required 25 ml of whole human blood mixed with Na Citrate anticoagulant to be obtained. To prepare solution of erythrocytes, whole blood was centrifuged at 500 g for 5 minutes, and plasma aspirated. The same volume of plasma removed was replaced with 150 mM NaCl buffer (in Millipore water). Tube was inverted to mix, centrifuged at 500 g for 5 min, and supernatant removed, and this step repeated 2×. Finally, red blood cells (RBC) were resuspended in PBS. 10 μL of compound was added to 190 μL of diluted red blood cell erythrocyte solution in a 96 well plate (n=4). 20% Triton X acted as the positive control, and PBS acted as the negative control/vehicle. Plates were incubated at 37° C. for 1 hour. Plates were centrifuged for 5 min at 500×g to pellet intact erythrocytes. Using a multichannel pipet, 100 μl of supernatant was transferred from each well into a clear, flat-bottomed 96-well plate. Absorbance of supernatants was measured with a plate reader at 405 nM

For “P1: PLP homopolymer having peptide side chains of SEQ ID: 1 (HVLVMSATRR), made by ROMP of norbornene peptide monomer M1 (also: side chains of polynorbornene homopolymer (PLP, ROMP of norbornene peptide monomer))”, the “DARPP-32 levels in striatum (immunohistochemistry)” value in the data set on R6/2 mice [1] was “significantly increased DARPP-32 levels”. The fragmented mitochondria entry in the data set on HdhQ111 cells was “significantly fewer fragmented mitochondria”. In the data set on R6/2 mice [2] (compared to the saline control), the “BDNF protein levels in striatal lysates” value is listed as “Significant increases” and the “PSD95 protein levels in striatal lysates” value is recorded as “Significant increases”. In addition, the “DARPP-32 levels in striatal lysates (immunoblotting)” value in the data set on R6/2 mice [2] (over saline control) is “significantly increased DARPP-32 levels”. Also, the “molecular weight on SDS-PAGE after enzyme treatment” value in the data set on enzymes is given as “maintained molecular weight”. In addition, the cleavage by pepsin result with pepsin was “no cleavage observed”. Further, in the data set with red blood cells, the hemolytic activity entry is on record as “non-significant”.

As to “peptide sequence HVLVMCAT (HV3) coupled to the cell penetrating, HIV-derived TAT peptide [HV3-TAT, reference compound]”, the fragmented mitochondria result in the data set on HdhQ111 cells was “significantly fewer fragmented mitochondria”. The “percent cleavage by pepsin” value at pepsin (isolated enzyme pepsin, 50 min, 200 μM) turned out to be 100%.
